Laboratory results as given in patent US7094869B2, “Low molecular weight peptidomimetic growth hormone secretagogues” (Genentech, Inc., priority 1994, dated 2006).
Where two headings read alike, the source gives them in different places. Starred links: 1 amine or outer side, 2 acyl side, 3 side chain; linkers in the order of their positions; H or OH if unused. Non-standard residues stand in square brackets, D forms with d. Residues, ends and D or L forms follow the SMILES beside them. dNMe2Nal = CN[C@H](Cc1ccc2ccccc2c1)C(=O)O; dPhe(4-Cl) = N[C@H](Cc1ccc(Cl)cc1)C(=O)O; d2Nal = N[C@H](Cc1ccc2ccccc2c1)C(=O)O; β3hAib = CC(C)(CC(=O)[*:2])N[*:1]; β3hF = N[C@H](CC(=O)O)Cc1ccccc1; Orn = NCCC[C@H](N)C(=O)O; Inp = O=C(O)C1CCNCC1; Ava = NCCCCC(=O)O; GABA = NCCCC(=O)O

Columns and labels:
rat pituitary cells = rat pituitary cells (Rattus norvegicus, UniProt O08725); settings: read-out: PIT Cell EC50, GH release, 15 min incubation
Sequence of rat pituitary cells (O08725 whole entry): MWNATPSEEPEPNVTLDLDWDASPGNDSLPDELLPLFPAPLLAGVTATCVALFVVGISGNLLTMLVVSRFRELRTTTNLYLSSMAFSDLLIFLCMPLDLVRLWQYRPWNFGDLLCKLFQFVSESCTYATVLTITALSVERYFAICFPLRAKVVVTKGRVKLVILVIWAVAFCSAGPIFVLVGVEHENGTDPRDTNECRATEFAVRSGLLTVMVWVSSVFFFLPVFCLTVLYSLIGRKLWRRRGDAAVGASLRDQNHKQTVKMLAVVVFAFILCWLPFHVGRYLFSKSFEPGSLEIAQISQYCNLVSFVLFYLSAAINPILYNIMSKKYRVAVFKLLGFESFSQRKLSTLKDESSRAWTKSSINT
How it was run: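 Primary rat anterior pituitary cells, cultured three days in DME low glucose/10% FBS, were washed, pre-incubated twice for 15 min, then challenged 15 min with test compounds (DMSO ≤0.1%) at 37 °C. Released GH was measured by two-site ELISA; EC50 came from 4-parameter fits, mean of three to four independent determinations.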

growth hormone secretion = assay: GHRP induced growth hormone secretion, intravenous administration (Rat IV); format: in vivo; settings: iv injection, serum GH 10 min after injection
Description: Immature weanling female Sprague Dawley rats were purchased from Charles River Labs (Portage, […].) and group housed with water and food available ad libitum. When the rats were 24-30 days old (weighing 50-90 g) they were anesthetized with pentobarbitone (4 mg in 0.5 ml, approximately 60 mg/kg) given by intraperitoneal injection. The rats were then placed briefly on a heated pad, to distend their tail veins, and given an intravenous tail vein injection of the peptides 20 minutes after receiving the anesthetic. The intravenous injection was of 0.1 ml using a 1 ml syringe. The injections contained graded doses of peptides or the vehicle (vehicle for all peptides given intravenously was a buffer of 20 mM sodium acetate, 45 g/l mannitol, pH 5.0). Ten minutes after the intravenous injection blood was taken by cardiac puncture, using a 3 ml syringe, and the rats were then sacrificed.
The blood was then clotted on ice, centrifuged, serum decanted and frozen for subsequent analysis using the rat GH ELISA described elsewhere in the application. For the rat GH ELISA the serum was diluted 1:50 or 1:250, depending on the expected serum GH concentrations achieved, and assayed in duplicate.

[1] = Table III, formula IV compounds
[2] = Table IV, formula III compounds

SMILES	EC50 (rat pituitary cells; [1])	RAT IV ED50 (growth hormone secretion; Table III)	EC50 (rat pituitary cells; [2])	RAT IV ED50 (growth hormone secretion; Table IV)	also measured
NCCCC[C@H](NC(=O)[C@H](Cc1ccccc1)NC(=O)[C@@H](Cc1c[nH]c2ccccc12)NC(=O)[C@@H](Cc1c[nH]c2ccccc12)NC(=O)[C@@H](N)Cc1c[nH]cn1)C(N)=O [H w w F K amide] (H-H[dW][dW]FK-NH2)	25.8 nM	50 µg			
CN(C(=O)CCCCN)[C@H](Cc1ccc2ccccc2c1)C(=O)N[C@H](Cc1ccc2ccccc2c1)C(=O)N[C@@H](Cc1ccccc1)C(N)=O [(Ava) nmb b F amide] (H-[Ava][dNMe2Nal][d2Nal]F-NH2)			1.6 nM	20 µg	
NCCCC[C@H](NC(=O)[C@H](Cc1ccccc1)NC(=O)[C@@H](Cc1ccc2ccccc2c1)NC(=O)[C@@H](Cc1ccc2ccccc2c1)NC(=O)CN)C(N)=O [G b b F K amide] (H-G[d2Nal][d2Nal]FK-NH2)	14.9 nM	100 µg			
NC(=O)[C@@H]1CCCN1C(=O)[C@@H](Cc1ccc2ccccc2c1)NC(=O)[C@@H](Cc1ccc2ccccc2c1)NC(=O)C1CCNCC1 [(inip) b b P amide] (H-[Inp][d2Nal][d2Nal]P-NH2)			9 nM	5 µg	
NCCCCC(=O)N[C@H](Cc1ccc2ccccc2c1)C(=O)N[C@H](Cc1ccc2ccccc2c1)C(=O)N[C@@H](Cc1ccccc1)C(=O)N1CCC[C@H]1C(N)=O [(Ava) b b F P amide] (H-[Ava][d2Nal][d2Nal]FP-NH2)	51 nM	50 µg			
NCCCCC(=O)N[C@H](Cc1ccccc1)C(=O)N[C@H](Cc1c[nH]c2ccccc12)C(=O)N[C@@H](Cc1ccccc1)C(N)=O [(Ava) f w F amide] (H-[Ava][dF][dW]F-NH2)			> 300 nM	1000 µg	
NCCC[C@H](NC(=O)[C@@H](Cc1ccc2ccccc2c1)NC(=O)[C@@H](Cc1ccc2ccccc2c1)NC(=O)C1CCNCC1)C(N)=O [(inip) b b O amide] (H-[Inp][d2Nal][d2Nal][Orn]-NH2)			5.9 nM	1 µg	
NCCCCN(CCc1ccccc1)C(=O)[C@@H](Cc1ccc2ccccc2c1)NC(=O)[C@@H](Cc1ccc2ccccc2c1)NC(=O)C1CCNCC1 [(inip) b b fbd, (inip)-DβNal-DβNal-[N-(2-phenylethyl), N-(4-aminobutyl)] amide]			0.9 nM	0.67 µg	
CN(C(=O)CCCN)[C@H](Cc1ccc2ccccc2c1)C(=O)N[C@H](Cc1ccc2ccccc2c1)C(=O)N[C@@H](Cc1ccccc1)C(=O)N[C@@H](CCCCN)C(N)=O [(Ab) nmb b F K amide] (H-[GABA][dNMe2Nal][d2Nal]FK-NH2)	0.5 nM	1 µg			
NC(=O)C[C@H](Cc1ccccc1)NC(=O)[C@@H](Cc1ccc2ccccc2c1)NC(=O)[C@@H](Cc1ccc2ccccc2c1)NC(=O)C1CCNCC1 [(inip) b b hcF amide, (inip)-DβNal-DβNal-(3(S)-3-benzyl-β-Ala)-amide] (H-[Inp][d2Nal][d2Nal][β3hF]-NH2)			0.2 nM	2.5 µg	
CC(C)(N)CC(=O)N[C@H](Cc1ccc2ccccc2c1)C(=O)N[C@H](Cc1ccc2ccccc2c1)C(=O)N[C@@H](Cc1ccccc1)C(=O)N[C@@H](CCCCN)C(N)=O [(nba) b b F K amide] (β3hAib-[d2Nal][d2Nal]FK-NH2)	2.8 nM	100 µg			
NCCCNC(=O)[C@H](Cc1ccc2ccccc2c1)NC(=O)[C@H](Cc1ccc2ccccc2c1)NC(=O)[C@H](N)Cc1ccc2ccccc2c1 [b B B ram, DβNal-βNal-βNal-[N-(3-aminopropyl)] amide]					EC50 (rat pituitary cells; Table VI, retroinverso compounds of formula V): 15.2 nM; RAT IV ED50 (growth hormone secretion; Table VI): 100 µg
CN(C(=O)[C@@H](Cc1ccc2ccccc2c1)NC(=O)C1CCNCC1)[C@@H](CN)Cc1ccc2ccccc2c1 [(inip) b mbm]					EC50 (rat pituitary cells; Table V, formula II compounds): 7 nM; RAT IV ED50 (growth hormone secretion; Table V): 20 µg
NCCCNC(=O)[C@@H](Cc1ccc2ccccc2c1)NC(=O)[C@@H](Cc1ccc2ccccc2c1)NC(=O)C1CCNCC1 [(inip) b b ram]			16 nM	5 µg	
NC(=O)[C@H](Cc1ccccc1)NC(=O)[C@@H](Cc1ccc(Cl)cc1)NC(=O)[C@@H](Cc1ccc2ccccc2c1)NC(=O)C1CCNCC1 [(inip) b chf F amide] (H-[Inp][d2Nal][dPhe(4-Cl)]F-NH2)			2.7 nM	5 µg	
NCCCC[C@H](NC(=O)[C@H](Cc1ccccc1)NC(=O)[C@@H](Cc1ccc2ccccc2c1)NC(=O)[C@@H](Cc1ccc2ccccc2c1)NC(=O)C1CCNCC1)C(=O)N[C@@H](Cc1ccc(O)cc1)C(N)=O [(inip) b b F K Y amide] (H-[Inp][d2Nal][d2Nal]FKY-NH2)	0.43 nM	1 µg			
CN(C(=O)[C@@H](Cc1ccc2ccccc2c1)NC(=O)C1CCNCC1)[C@@H](CO)Cc1ccc2ccccc2c1 [(inip) b nbol, (inip)-DβNal-(N-Methyl-D-β-naphthylalanol)]					EC50 (rat pituitary cells; Table V, formula II compounds): 3 nM; RAT IV ED50 (growth hormone secretion; Table V): 20 µg
COC(=O)[C@H](Cc1ccccc1)NC(=O)[C@@H](Cc1ccc2ccccc2c1)NC(=O)[C@@H](Cc1ccc2ccccc2c1)N(C)C(=O)C1CCNCC1 [(inip) nmb b F Me ester] (H-[Inp][dNMe2Nal][d2Nal]F-OMe)			1.4 nM	10 µg	
O=C(N[C@H](Cc1ccc2ccccc2c1)C(=O)NCc1ccc2ccccc2c1)C1CCNCC1 [(inip) b man, (inip)-DβNal-(2-aminomethylnaphthyl) amide]					EC50 (rat pituitary cells; Table V, formula II compounds): 9 nM; RAT IV ED50 (growth hormone secretion; Table V): 500 µg
C[C@@H](N)C(=O)N[C@H](Cc1c[nH]c2ccccc12)C(=O)N[C@H](Cc1c[nH]c2ccccc12)C(=O)N[C@@H](Cc1ccccc1)C(=O)N[C@@H](CCCCN)C(N)=O [a w w F K amide] (H-[dA][dW][dW]FK-NH2)	4.1 nM	1.47 µg			
CN(C(=O)[C@@H](Cc1ccc2ccccc2c1)NC(=O)C1CCNCC1)[C@H](Cc1ccc2ccccc2c1)C(=O)N[C@@H](Cc1ccccc1)C(N)=O [(inip) b nmb F amide] (H-[Inp][d2Nal][dNMe2Nal]F-NH2)			1 nM	5 µg	
CN(C(=O)[C@@H](Cc1ccc2ccccc2c1)NC(=O)C1CCNCC1)[C@H](Cc1ccc2ccccc2c1)C(=O)NC1CCNCC1 [(inip) b nmb api, (inip)-DβNal-(N-Me-DβNal)-N-(4-piperidinyl) amide]			0.5 nM	2 µg	
NCCCCC(=O)N[C@H](Cc1ccc2ccccc2c1)C(=O)N[C@H](Cc1ccc2ccccc2c1)C(=O)N[C@@H](Cc1ccccc1)C(=O)NCC(N)=O [(Ava) b b F G amide] (H-[Ava][d2Nal][d2Nal]FG-NH2)	7.2 nM	50 µg			
COC(=O)[C@@H](Cc1ccc2ccccc2c1)NC(=O)[C@@H](Cc1ccc2ccccc2c1)NC(=O)C1CCNCC1 [(imp) b b Me ester] (H-[Inp]-[d2Nal]-[d2Nal]-OMe)					EC50 (rat pituitary cells; Table V, formula II compounds): 5 nM; RAT IV ED50 (growth hormone secretion; Table V): 100 µg
NCCCCC(=O)N[C@H](Cc1ccc2ccccc2c1)C(=O)N[C@H](Cc1c[nH]c2ccccc12)C(=O)N[C@@H](Cc1ccccc1)C(=O)N[C@@H](CCCCN)C(N)=O [(Ava) b w F K amide] (H-[Ava][d2Nal][dW]FK-NH2)	4.6 nM	11.8 µg			
C[C@@H](N)C(=O)N[C@H](Cc1ccc2ccccc2c1)C(=O)N[C@H](Cc1ccc2ccccc2c1)C(=O)N[C@@H](Cc1ccccc1)C(=O)N[C@@H](CCCCN)C(N)=O [a b b F K amide] (H-[dA][d2Nal][d2Nal]FK-NH2)	3.5 nM	10 µg			
